Laboratory results from PMC4589238, “Acute Biphasic Effects of Ayahuasca” (PLoS ONE, 2015).
Where two headings read alike, the source gives them in different places.

Assays:
[1] = Plasma concentrations of ayahuasca compounds and metabolites after oral ayahuasca (LC/MS/MS); format: in vivo, human; design: AUC (mean ± sd): unit not given here; conditions: for Cmax / Tmax: both sexes, human, in vivo; for Cmax: po
Source text: A sample of six liters of "Hoasca" was donated by the União do Vegetal (UDV) church in Brazil for the specific purpose of use in this study. Quantification of the main compounds in the brew was done with liquid chromatography-electrospray ionization-tandem mass spectrometry (LC/MS/MS). The screening included the following compounds: DMT, DMT‐N‐oxide (DMT-NO), N‐methyltryptamine (NMT), indoleacetic acid (IAA), 5‐hydroxy‐DMT (5-OH-DMT, or bufotenin), 5‐methoxy‐DMT (5-MeO-DMT), Harmine, Harmol, Harmaline, Harmalol, THH, 7‐hydroxy‐tetrahydroharmine (THH-OH), and 2‐methyl‐tetrahydro‐beta‐carboline (2-MTHBC). The original liquid volume was then reduced to 50% using a rotary evaporator to decrease the amount of liquid intake.
Blood was collected in sterile EDTA containing tubes. Ten blood samples (3 mL each) were collected every 25 minutes, starting 25 minutes before ayahuasca ingestion and ending 200 minutes after ingestion (in a total of ten samples for each individual). Blood was collected by a professional nurse, with a catheter that remained in place during the entire time of the study. Each tube was carefully and slowly turned upside-down three times and then stored at 0°C until all ten samples were collected. Blood samples were then centrifuged at 2000 rpm for 10 min at 4°C and the resulting plasma immediately collected and frozen at -80°C. The frozen plasma samples were stored at -80°C until shipped on dry ice to USA for analysis according to [31]. Compounds included in this screening were DMT, DMT-NO, NMT, IAA, 5-OH-DMT (bufotenin), 5-MeO-DMT, Harmine, Harmol, Harmaline, Harmalol, THH, THH-OH and 2-MTHBC.
Two volunteers opted out of blood collection, and data from one volunteer was discarded due to high hemolysis in the blood samples. Therefore data were available from 16 volunteers. Maximum plasma Concentration (Cmax), Time for maximum plasma concentration (Tmax) and area under the curve (AUC) of ten identified compounds are summarized in Table 2. […] No significant differences were found between men and women for any of the identified compounds in blood. […] There were no significant correlations between time to vomit and Cmax or AUC.

5HT-2A receptors = conditions: cited from earlier work
human subjects = conditions: cited from earlier work
healthy volunteers = assay: Association between plasma concentration and EEG spectral changes (generalized linear models); format: in vivo, human; conditions: for Clusters between plasma concentration and EEG spectra: delta, theta and beta frequency bands; for Cohen's d, plasma concentration vs alpha band: left frontal electrodes
Method: Relationships between plasma concentration of identified compounds and spectral changes in the six frequency bands evaluated were calculated by fitting generalized linear models (glmfit function in MATLAB) for each compound and frequency band. This analysis was followed by the non-parametric cluster based correction with 5000 permutations.
Results were considered statistically significant when p <0.05. Effect sizes are also reported, using Partial eta squared (partial η^2) for the main frequency clusters and Cohen’s d for the generalized linear models.

MAO-A = system: MAO-A; design: method as in PMID 19879939; conditions: cited from earlier work
[2] = cited from earlier work
[3] = plasma, 16 volunteers, oral ayahuasca, sampling to 200 min, read-out: Cmax (mean ± sd)
[4] = plasma, 16 volunteers, oral ayahuasca, read-out: Tmax (mean ± sd) (converted)
[5] = plasma, 16 volunteers, oral ayahuasca
[6] = left centro-parieto-occipital electrodes
[7] = left parieto-occipital electrodes
[8] = one large widespread bilateral cluster
[9] = plasma, 16 volunteers, oral ayahuasca, read-out: Cmax (min—max)
[10] = plasma, 16 volunteers, oral ayahuasca, sampling to 200 min
[11] = one right central electrode (C6)

Row | SMILES | Cmax [1, 3] [ng/mL] | Tmax [1, 4] [h] | AUC (min—max) [1, 5] [g·min/mL] | Affinity for 5HT-2A receptors (5HT-2A receptors) | Clusters between plasma concentration and EEG spectra (healthy volunteers) | Cohen's d, plasma concentration vs alpha band power decrease (healthy volunteers; [6]) | Cohen's d, plasma concentration vs slow-gamma power increase (healthy volunteers; [7]) | Cohen's d, plasma concentration vs fast-gamma power increase (healthy volunteers; [8]) | Cohen's d, plasma concentration vs slow-gamma power increase (healthy volunteers; right frontal electrodes) | Cohen's d, plasma concentration vs slow-gamma power increase (healthy volunteers; right parietal electrodes) | Cmax [1, 9] [ng/mL] | Cohen's d, plasma concentration vs alpha band (healthy volunteers) | Cmax (min—max) [1, 5] [ng/mL] | Tmax (mean ± sd) [1, 5] [h] | Cmax (mean ± sd) [1, 10] [ng/mL] | Clusters between plasma concentration and delta band (healthy volunteers) | Clusters between plasma concentration and alpha band (healthy volunteers) | other results
1 | COc1ccc2c(c1)[nH]c1c(C)nccc12 [Harmine] | 110 ± 138 | 2.5 | 21.37 to 2325.28 | moderate affinity | did not show any significant clusters | 0.0297 | 0.1797 | 0.0312 | 0.0024 | 0.1208 | – | – | – | – | – | – | – | Tmax ([1]; from ayahuasca ingestion, group average curve, read-out: Time of peak plasma level in the group average (converted)): 0.833 h; Effects in humans (human subjects; 120 mg orally): barely-perceptible sedative effects; Effects in humans (human subjects; 10 to 20 mg/kg i.m.): effects qualitatively similar to LSD or mescaline; Psychoactive dose (human subjects; i.v.): ≥ 200 mg; Cohen's d, plasma concentration vs slow-gamma power increase (healthy volunteers; left centro-frontal electrodes (F7, FC5, C5 and C3)): 0.2028; Potency at inhibiting MAO-A relative to MAO-B (MAO-A): 10,000 fold
2 | Cc1[nH]ccc2c1[nH]c1cc(=O)ccc12 [Harmol] | 85 ± 93.6 | 2.47 | 0.00 to 1550.35 | – | did not show any significant clusters | 0.0556 | 0.2921 | 0.0463 | 0.2747 | 0.0941 | < 319 | 0.3029 | – | – | – | – | – | Cohen's d, plasma concentration vs slow-gamma power increase (healthy volunteers; left fronto-central electrodes (F7 and FC5)): 0.1250
3 | O=C(O)Cc1c[nH]c2ccccc12 [IAA, indoleacetic acid] | – | – | 1237.81 to 7726.25 | – | – | – | – | – | – | – | – | 0.2888 | 61.35 to 1674.57 | 2.9167 ± 0.6632 | 717.72 ± 454.50 | not significant | – | Clusters between plasma concentration and beta band (healthy volunteers; beta band): No significant clusters; Cohen's d, plasma concentration vs slow-gamma (healthy volunteers; right centro-frontal electrodes (F2, FCz, FC2, FC4)): 0.0052; Cohen's d, plasma concentration vs fast-gamma power increase (healthy volunteers; right frontal electrodes): 0.0737; Cohen's d, plasma concentration vs fast-gamma (healthy volunteers; right parietal electrodes (CP2, Pz, P2, P4)): 0.1428
4 | CNCCc1c[nH]c2ccccc12 [NMT, N‐methyltryptamine] | 3.1 ± 2.12 | 2.03 | 1.52 to 21.69 | – | – | – | – | – | – | 0.1538 | 0.57 to 7.56 | – | – | – | – | not significant | No significant clusters | Cohen's d, plasma concentration vs slow-gamma power increase (healthy volunteers; bilateral frontal electrodes): 0.0822; Cohen's d, plasma concentration vs fast-gamma power increase (healthy volunteers; bilateral fronto-central electrodes): 0.0290; Cohen's d, plasma concentration vs fast-gamma power increase (healthy volunteers; bilateral parieto-occipital electrodes): 0.0911; Cohen's d, plasma concentration vs beta power increase (healthy volunteers; left frontal electrodes (F7, AF7, AF3, AFz)): 0.0863; Cohen's d, plasma concentration vs slow-gamma power increase (healthy volunteers; occipital electrodes (O1, Oz and O2)): 0.2579
5 | COc1ccc2c3c([nH]c2c1)[C@@H](C)NCC3 [THH, tetrahydroharmine] | – | – | 75.01 to 3762.73 | moderate affinity | did not show any significant clusters | – | – | 0.0501 | 0.0366 | – | – | – | 22.62 to 895.70 | 3.1772 ± 0.7117 | 328.76 ± 324.86 | – | – | Time to reach plateau of plasma level in the group average ([1]; from ayahuasca ingestion, group average curve): 150 min; AUC (mean ± sd) [1, 5]: 1262.09 ± 1270.39; Cohen's d, plasma concentration vs slow-gamma power increase (healthy volunteers; bilateral parieto-occipital cluster): 0.0656; Cohen's d, plasma concentration vs alpha band power decrease (healthy volunteers; left fronto-centro-parieto-occipital cluster extending to some right centro-parietal electrodes): 0.0044; Cohen's d, plasma concentration vs slow-gamma power increase (healthy volunteers; left fronto-temporo-central electrodes): 0.0795; Recovery in 24 h urine as THH and THH-OH ([2]; after ingestion of ayahuasca): 9%; Half-life [2]: ~9 h
6 | CC1NCCc2c1[nH]c1cc(O)ccc21 (centres unmarked) [THH-OH, 7‐hydroxy‐tetrahydroharmine] | – | – | 0.00 to 284.32 | – | – | – | – | – | – | – | – | – | 0.00 to 111.01 | 1.994 ± 0.8978 | 22.58 ± 26.76 | – | No significant clusters | Cohen's d, plasma concentration vs delta band power increase (healthy volunteers; one left frontal electrode (F7)): 0.2644; Cohen's d, plasma concentration vs delta band power increase (healthy volunteers; [11]): 0.0269; Cohen's d, plasma concentration vs theta band power increase (healthy volunteers; [11]): 0.2630; Clusters between plasma concentration and slow-gamma frequency band (healthy volunteers; slow-gamma band): No significant clusters
